Measurements from USRE42274E1, “Cyclic peptide CXCR4 antagonists” (Eli Lilly and Company, priority 2007, dated 2011).
Bridge positions count the residues as written; N and C are the ends. Square brackets hold non-standard residues; d marks the D form. Peptide text beside a SMILES is read from it. 2Nal = N[C@@H](Cc1ccc2ccccc2c1)C(=O)O; Lys(iPr) = CC(C)NCCCC[C@H](N)C(=O)O

Assay: Half-life in mice
Settings: mouse, in vivo, read-out: half-life (T½) (converted)
Protocol: Pharmacologic properties such as compound bioavailability, in vivo metabolic stability, and pharmacokinetic/pharmacodynamic properties can be determined by methods well known in the art of drug development. […] For example, in mice, the half-life (T½) of the compound of Example 58 is about 3 hours. With respect to pharmacodynamic properties, preferred compounds induce prolonged neutrophil and white blood cell mobilization in mice. For example, the compound of Example 25 induces a significant increase of neutrophils and white blood cells in peripheral blood for at least 6 hours after single dose subcutaneous administration at 5 mg/kg in mice.

CC(C)NCCCC[C@@H]1NC(=O)[C@H](Cc2ccc(O)cc2)NC(=O)[C@H](Cc2ccccc2)NC(=O)CC[C@H](C(=O)N[C@@H](CCCNC(=N)N)C(N)=O)NC(=O)CNC(=O)[C@H](Cc2ccc3ccccc3c2)NC(=O)[C@@H](CCCNC(=N)N)NC1=O [Example 58, cyclo[Phe-Tyr-Lys(iPr)-DArg-2Nal-Gly-DGlu]-Arg-NH2] (FY[Lys(iPr)][dR][2Nal]G[dE]R-NH2; lactam N-7)
half-life: ~3 h
